The values that follow are results of earlier work, collected in paper PMC11195919 (Journal of pharmacy & pharmaceutical sciences : a …, 2021).

The subject of data set [1] is OATP1B3. To be noted: read-out: Km of CCK-8 transport by OATP1B3.
For data set [2], the system named is primary rat hepatocyte.

cholecystokinin octapeptide [CCK-8]: the values for the Michaelis constant (Km) in data set [1] and in data set [2] (read-out: Km of CCK-8 uptake in primary rat hepatocyte) were 3.82 µM and 6.7 µM, respectively. For the same substance, the “linear range of initial uptake of CCK-8” value in data set [2] (non-transduced rat hepatocytes) is reported as “at least 1 min”.
